These results are taken from US20250177412A1, “SMALL-MOLECULE INHIBITORS TARGETING THE BOB1/OCT1 INTERFACE” (NANTES UNIVERSITE, priority 2022, published 2025).

SMILES strings stand for the structures.

In one test the test system is B cells. Kind of test: GZMB+ B cell expansion. As to conditions: 10 μM added daily, day 3. The test is classed as cell-based, human. Here is the method: B cells were kept unstimulated (B resting) or stimulated (B expanded) for 24 hours with the expansion mixture containing F(ab′)2 anti-BCR, CpG ODN, CD40L, IL-2, and IL-21. FIG. 6A-B show the expression level of granzyme B measured as frequency (FIG. 6A) and by the MFI (FIG. 6B) in DMSO-treated (compound 005-) and 10 μM compound 005-treated resting (open circles) and expanded for 3 days (closed circles) B cells. […] Representative offset histogram overlays showing median fluorescence intensity of staining of gated live […] with cell proliferation dye (CPD) (FIGS. 6C, 6E and 6F). […]
Primary total human B cells (1×10^6 cells/mL) were prestimulated for ˜24 h with the cocktail containing 10 ng/mL of IL-21 (Miltenyi Biotec), 5 μg/mL of F(ab′)2 anti-BCR Abs (Jackson ImmunoResearch Laboratories Inc.), 50 ng/ml of CD40L (R&D systems), 1 μg/mL of CpG oligonucleotides (ODN 2006, Invivogen), and 50 U/mL of IL-2 (Novartis) as previously described, in the presence of vehicle (DMSO) or 10 μM compound 005. […] The capacity of B cells to suppress effector T cell proliferation was assessed as previously described. […] T cell proliferation was evaluated as the percentage of CPD-low T cells on day 3. […]

A further test concerns CD4+CD25- T cells. The test is described as follows: Anti-CD3/CD28-induced T-cell proliferation (CPD). Format: cell-based. As to conditions: Homo sapiens, 72 h, 3 days. The protocol: FIGS. 7A-P are a combination of graphs and FACS plots showing that targeting the BOB1-OCT(s) interaction by compound 005 inhibits dose-dependently T-cell proliferation and selectively suppresses memory Th17 responses. Representative offset histogram overlays showing median fluorescence intensity of cell proliferation dye (CPD) in anti-CD3/CD28-activated CD4^+CD25^− T cells cultured without BOB1 inhibitor (DMSO-treated control) or in the presence of 5, 10 or 15 μM compound 005, as indicated (FIG. 7A). The percentage of proliferating cells is indicated for one representative donor. […] FIG. 7C-O show the expression of Th1-(IFNG (FIG. 7C), TNF (FIG. 7D), IL-2 (FIG. 7E) and TBX21 (FIG. 7F)), Th2-(IL-4 (FIG. 7G) and GATA3 (FIG. 7H)), Th17-(IL-17A (FIG. 7I), IL-17F (FIG. 7J), IL-21 (FIG. 7K), IL-22 (FIG. 7L) and RORC (FIG. 7M)), and Treg-(IL-10 (FIG. 7N) and FOXP3 (FIG. 7O)) associated cytokines and transcription factors during recall (memory) T cell responses in vitro. […] Each dot represents a biological replicate. Bars indicate the mean±SD. * P<0.05, ** P<0.01, **** P<0.0001.
Cells were resuspended in PBS and labelled with Cell Proliferation Dye eFluor 450 (CPD) (eBioscience) at a final concentration of 10 μM at 37° C. for 10 min, kept on ice for 5 min, and washed twice with 10 mL of ice-cold RPMI 1640 10% FCS medium.
To confirm and extend the observation that targeting the BOB1-OCT(s) interaction suppresses effector T cell proliferation efficiently, we cultured CD4^+CD25^− T cells in the presence of anti-CD3/CD28 microbeads and different concentrations of compound 005 for 3 days. […] OCT1 is constitutively expressed in T cells, whereas BOB1 is induced only after activation. […] Therefore, we next determined the consequences of inhibition of the OCT1-BOB1 complex on the expression of Th1-, Th2-, and Th17-associated cytokines during primary and secondary (memory) T-cell responses in vitro (FIGS. 7C-O). […]

For the compound `Cc1ccc(NC(=O)C2CN(c3nc(NCCCc4ccc(F)cc4)nc(NCCC(=O)O)n3)c3ccccc3O2)cc1Cl` (stereo not shown) [compound 005, 3-((4-(2-((3-chloro-4-methylphenyl)carbamoyl)-2,3-dihydro-4H-benzo[b][1,4]oxazin-4-yl)-6-((3-(4-fluorophenyl)propyl)amino)-1,3,5-triazin-2-yl)amino)propanoic acid], the GZMB expression result in the test on B cells was “did not affect”. In the test on CD4+CD25- T cells (5 μM), the inhibition (usually the drop in the measured response relative to a control, in per cent) at 5 µM worked out at 18.8 ± 12.5%. Moreover, in the test with CD4+CD25- T cells (10 μM), the inhibition at 10 µM was found to be 50.5 ± 10.2%. For the same compound, the inhibition at 15 µM in the test on CD4+CD25- T cells (15 μM) stood at 77.5 ± 9.2%.
